The record followed here is ChEMBL document CHEMBL1133851, “Novel spermine-amino acid conjugates and basic tripeptides enhance cleavage of the hairpin ribozyme at low magnesium ion concentration” (Bioorg Med Chem Lett, 2001).

Molecules are shown by their SMILES. Where a SMILES comes first, the peptide text is derived from it. [ ]: non-standard residue; d: D form. ξ: configuration not given here. Dab = NCC[C@H](N)C(=O)O; Dap = NC[C@H](N)C(=O)O; ξDab = NCCC(N)C(=O)O; ξDap = NCC(N)C(=O)O

Assay [1] relates to Hairpin ribozyme RNA.
Description: Cleavage rate against hairpin ribozyme at 5 mM with 0.5 uM magnesium ions
For assay [2], the system named is Hairpin ribozyme RNA. This is another data set of the same source.
Description: Cleavage rate against hairpin ribozyme at 2 mM, in presence of 0.5 uM magnesium ions

Take `NCC(=O)O`: the K obs in the assay with Hairpin ribozyme RNA [1] came out at 0.03; in the assay on Hairpin ribozyme RNA [2] it was 0.017.

In the case of `NCCCC[C@@H](N)C(=O)O`, the K obs in the assay with Hairpin ribozyme RNA [1] was 0.026; in the assay on Hairpin ribozyme RNA [2], 0.004. Taken in the same sequence, the figures for `NCCCNCCCCNCCCN` were 0.065 and 0.073.

Consider `NCC[C@@H](N)C(=O)O`, for which the results for the K obs in the assay on Hairpin ribozyme RNA [1] and in the assay with Hairpin ribozyme RNA [2] were 0.027 and 0.023, respectively. Taken in the same sequence, the figures for `N=C(N)NCCC[C@H](N)C(=O)O` were 0.034 and 0.016.

Turning to `NCCC[C@@H](N)C(=O)O`, the K obs in the assay with Hairpin ribozyme RNA [1] worked out at 0.034; with Hairpin ribozyme RNA [2], 0.0086. In the case of `NCCC(NC(=O)[C@@H](N)CCN)C(=O)O` (some centres not stated) (H-[Dab]-[ξDab]-OH), the K obs in the assay on Hairpin ribozyme RNA [2] worked out at 0.021.

As to `NCC[C@H](N)C(=O)NC(CN)C(=O)O` (some centres not stated) (H-[Dab]-[ξDap]-OH), in the assay on Hairpin ribozyme RNA [2], the K obs is 0.02. `NCCCC(=O)O`: the values for the K obs in the assay on Hairpin ribozyme RNA [1] and with Hairpin ribozyme RNA [2] were 0.023 and 0.0088, respectively.

On to `NC[C@@H](N)C(=O)O`, for which the K obs with Hairpin ribozyme RNA [1] came to 0.022; in the assay with Hairpin ribozyme RNA [2] it was 0.02.

Regarding `N[C@H](Cc1c[nH]cn1)C(=O)O`, the K obs in the assay with Hairpin ribozyme RNA [1] worked out at 0.026; in the assay on Hairpin ribozyme RNA [2], 0.0085.

Consider `NCCC(=O)O`, for which the K obs in the assay with Hairpin ribozyme RNA [1] is 0.03; in the assay on Hairpin ribozyme RNA [2] it was 0.018. Taken in the same sequence, the figures for `NC[C@H](N)C(=O)O` were 0.045 and 0.061. Compound `NCC(NC(=O)[C@@H](N)CN)C(=O)O` (some centres not stated) (H-[Dap]-[ξDap]-OH) displayed a K obs with Hairpin ribozyme RNA [2] of 0.024.

Regarding `N[C@@H](Cc1c[nH]cn1)C(=O)O`, the K obs with Hairpin ribozyme RNA [1] is 0.013; with Hairpin ribozyme RNA [2], 0.037. As to `NCCCC[C@H](N)C(=O)O`, the K obs with Hairpin ribozyme RNA [1] came to 0.013; in the assay with Hairpin ribozyme RNA [2] it was 0.016. `NCCC(NC(=O)[C@@H](N)CN)C(=O)O` (some centres not stated) (H-[Dap]-[ξDab]-OH): in the assay with Hairpin ribozyme RNA [2], the K obs amounted to 0.026.

For the compound `NCC[C@H](N)C(=O)O`, the K obs stood at 0.08 in the assay with Hairpin ribozyme RNA [1] and 0.085 with Hairpin ribozyme RNA [2].
